In patent US20240208992A1, “MACROCYCLES AS CFTR MODULATORS” (Idorsia Pharmaceuticals Ltd, priority 2021, published 2024) one finds EC50 and Emax data, which are given here for 14 molecules.

The assay concerns the target human F508del-CFTR (Homo sapiens, UniProt P13569, DEL508-508). Briefly: F508del-CFTR cell surface expression (corrector activity), DiscoveRx ß-galactosidase complementation chemiluminescence assay in recombinant U2OS cell line.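 For all read-outs here: U2OS cells co-expressing ProLink-tagged F508del-CFTR and a membrane-anchored enzyme acceptor, where more surface CFTR restores β-galactosidase activity measured by chemiluminescence.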 The following applies: U2OS cells, 16h compound incubation; for EC50: EC50, F508del-CFTR cell surface expression, geomean of several measurements; for Emax: U2OS, in relation to the Emax of the corrector lumacaftor (=100%), arithmetic mean.

human F508del-CFTR, sequence (P13569 with tags, fused parts or gaps DEL508-508): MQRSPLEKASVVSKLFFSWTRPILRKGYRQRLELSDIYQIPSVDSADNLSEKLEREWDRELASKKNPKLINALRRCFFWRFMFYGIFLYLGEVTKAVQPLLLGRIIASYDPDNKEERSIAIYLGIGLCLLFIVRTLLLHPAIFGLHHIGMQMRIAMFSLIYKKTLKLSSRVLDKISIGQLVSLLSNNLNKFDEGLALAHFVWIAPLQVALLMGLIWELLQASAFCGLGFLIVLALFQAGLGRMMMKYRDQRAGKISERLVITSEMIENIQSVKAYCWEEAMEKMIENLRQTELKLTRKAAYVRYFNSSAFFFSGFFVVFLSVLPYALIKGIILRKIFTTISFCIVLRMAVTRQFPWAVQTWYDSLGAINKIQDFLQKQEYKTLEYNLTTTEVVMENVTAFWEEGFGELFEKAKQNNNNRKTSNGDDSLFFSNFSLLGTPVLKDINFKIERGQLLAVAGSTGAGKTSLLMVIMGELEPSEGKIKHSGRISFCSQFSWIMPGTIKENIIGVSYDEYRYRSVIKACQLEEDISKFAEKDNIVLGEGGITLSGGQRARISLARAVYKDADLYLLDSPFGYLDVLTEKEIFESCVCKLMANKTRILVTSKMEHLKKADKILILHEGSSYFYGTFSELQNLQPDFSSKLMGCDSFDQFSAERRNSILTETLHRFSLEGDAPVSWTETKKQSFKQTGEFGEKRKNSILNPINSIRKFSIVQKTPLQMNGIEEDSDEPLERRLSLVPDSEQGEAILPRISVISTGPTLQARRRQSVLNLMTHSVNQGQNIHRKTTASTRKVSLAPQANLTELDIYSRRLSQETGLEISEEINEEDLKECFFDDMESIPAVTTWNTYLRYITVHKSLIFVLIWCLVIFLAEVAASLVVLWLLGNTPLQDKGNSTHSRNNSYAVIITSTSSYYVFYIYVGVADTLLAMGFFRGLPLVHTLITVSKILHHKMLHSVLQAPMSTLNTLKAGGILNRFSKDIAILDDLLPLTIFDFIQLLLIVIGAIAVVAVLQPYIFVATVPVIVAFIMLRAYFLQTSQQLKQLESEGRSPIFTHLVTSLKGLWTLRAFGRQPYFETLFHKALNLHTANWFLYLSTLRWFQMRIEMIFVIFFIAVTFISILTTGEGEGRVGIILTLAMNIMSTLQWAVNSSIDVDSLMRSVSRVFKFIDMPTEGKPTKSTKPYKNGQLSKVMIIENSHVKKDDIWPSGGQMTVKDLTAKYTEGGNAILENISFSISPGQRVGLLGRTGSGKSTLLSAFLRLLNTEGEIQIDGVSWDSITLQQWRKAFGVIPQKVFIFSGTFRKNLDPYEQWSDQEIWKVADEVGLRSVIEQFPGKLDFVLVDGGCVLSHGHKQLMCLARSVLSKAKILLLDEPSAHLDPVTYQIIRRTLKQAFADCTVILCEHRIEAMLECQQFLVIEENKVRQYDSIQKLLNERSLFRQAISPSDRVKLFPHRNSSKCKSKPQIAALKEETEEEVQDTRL

For `COc1noc(CCNC(=O)[C@@H]2CC(=O)N(C)[C@@H](CC(C)C)C(=O)N(C)C3(CC3)C(=O)N[C@H](Cc3ccccc3)COc3ccc4ncc(F)cc4c3C(=O)N2)c1F` [Example 963, (3′S,7′S,13′R)-13′-benzyl-20′-fluoro-N-(2-(4-fluoro-3-methoxyisoxazol-5-yl)ethyl)-7′-isobutyl-6′,9′-dimethyl-1′,5′,8′,11′-tetraoxo-2′,3′,4′,5′,6′,7′,8′,9′,11′,12′,13′,14′-dodecahydro-1′H-spiro[cyclopropane-1,10′-[1]oxa[4,7,10,14]tetraazacycloheptadecino[16,17-f]quinoline]-3′-carboxamide], the EC50 was 267 nM and the Emax turned out to be 447%.
The matching figures for `CC(C)C[C@H]1C(=O)N(C)[C@H](Cc2nc(C(F)(F)F)no2)C(=O)N[C@H](Cc2ccccc2)COc2ccc3ncc(F)cc3c2C(=O)N[C@H](C(=O)NCCc2nc(C3CC3)no2)CC(=O)N1C` [Example 964, (3S,7S,10R,13R)-13-benzyl-N-(2-(3-cyclopropyl-1,2,4-oxadiazol-5-yl)ethyl)-20-fluoro-7-isobutyl-6,9-dimethyl-1,5,8,11-tetraoxo-10-((3-(trifluoromethyl)-1,2,4-oxadiazol-5-yl)methyl)-1,2,3,4,5,6,7,8,9,10,11,12,13,14-tetradecahydro-[1]oxa[4,7,10,14]tetraazacycloheptadecino[16,17-f]quinoline-3-carboxamide]: 21 nM and 418%.
For `Cc1cc(CCNC(=O)[C@@H]2CC(=O)N(C)[C@@H](CC(C)C)C(=O)N(C)[C@H](Cc3nc(C(F)(F)F)no3)C(=O)N[C@H](Cc3ccccc3)COc3ccc4ncc(F)cc4c3C(=O)N2)on1` [Example 965, (3S,7S,10R,13R)-13-benzyl-20-fluoro-7-isobutyl-6,9-dimethyl-N-(2-(3-methylisoxazol-5-yl)ethyl)-1,5,8,11-tetraoxo-10-((3-(trifluoromethyl)-1,2,4-oxadiazol-5-yl)methyl)-1,2,3,4,5,6,7,8,9,10,11,12,13,14-tetradecahydro-[1]oxa[4,7,10,14]tetraazacycloheptadecino[16,17-f]quinoline-3-carboxamide] the same measures were 32 nM and 453%.
The matching figures for `CC(C)C[C@H]1C(=O)N(C)[C@H](Cc2nc(C(F)(F)F)no2)C(=O)N[C@H](Cc2ccccc2)COc2ccc3ncc(F)cc3c2C(=O)N[C@H](C(=O)NC[C@@H](O)c2nc(C3CC3)no2)CC(=O)N1C` [Example 966, (3S,7S,10R,13R)-13-benzyl-N-((R)-2-(3-cyclopropyl-1,2,4-oxadiazol-5-yl)-2-hydroxyethyl)-20-fluoro-7-isobutyl-6,9-dimethyl-1,5,8,11-tetraoxo-10-((3-(trifluoromethyl)-1,2,4-oxadiazol-5-yl)methyl)-1,2,3,4,5,6,7,8,9,10,11,12,13,14-tetradecahydro-[1]oxa[4,7,10,14]tetraazacycloheptadecino[16,17-f]quinoline-3-carboxamide]: 82 nM and 404%.
With `COc1noc(CCNC(=O)[C@@H]2CC(=O)N(C)[C@@H](CC(C)C)C(=O)N(C)[C@H](CC(F)F)C(=O)N[C@H](Cc3ccccc3)COc3ccc4ncc(F)cc4c3C(=O)N2)c1F` [Example 967, (3S,7S,10R,13R)-13-benzyl-10-(2,2-difluoroethyl)-20-fluoro-N-(2-(4-fluoro-3-methoxyisoxazol-5-yl)ethyl)-7-isobutyl-6,9-dimethyl-1,5,8,11-tetraoxo-1,2,3,4,5,6,7,8,9,10,11,12,13,14-tetradecahydro-[1]oxa[4,7,10,14]tetraazacycloheptadecino[16,17-f]quinoline-3-carboxamide], the EC50 came to 92 nM and the maximal effect (Emax) came out at 472%.
For `COc1noc(CCNC(=O)[C@@H]2CC(=O)N(C)[C@@H](CC(C)C)C(=O)N(C)[C@H](CC(F)F)C(=O)N[C@H](Cc3ccccc3)COc3cc(C)nc(OC)c3C(=O)N2)c1F` [Example 968, (3R,6R,9S,13S)-3-benzyl-6-(2,2-difluoroethyl)-N-(2-(4-fluoro-3-methoxyisoxazol-5-yl)ethyl)-9-isobutyl-16-methoxy-7,10,18-trimethyl-5,8,11,15-tetraoxo-2,3,4,5,6,7,8,9,10,11,12,13,14,15-tetradecahydropyrido[3,4-p][1]oxa[4,7,10,14]tetraazacycloheptadecine-13-carboxamide] the same measures were 226 nM and 478%.
For `COc1noc(CCNC(=O)[C@@H]2CC(=O)N(C)[C@@H](CC(C)C)C(=O)N(C)C3(CC(F)(F)C3)C(=O)N[C@H](Cc3ccccc3)COc3ccc4ncc(F)cc4c3C(=O)N2)c1F` [Example 969, (3′S,7′S,13′R)-13′-benzyl-3,3,20′-trifluoro-N-(2-(4-fluoro-3-methoxyisoxazol-5-yl)ethyl)-7′-isobutyl-6′,9′-dimethyl-1′,5′,8′,11′-tetraoxo-2′,3′,4′,5′,6′,7′,8′,9′,11′,12′,13′,14′-dodecahydro-1′H-spiro[cyclobutane-1,10′-[1]oxa[4,7,10,14]tetraazacycloheptadecino[16,17-f]quinoline]-3′-carboxamide] the same measures were 142 nM and 452%.
For `COc1noc(CCNC(=O)[C@@H]2CC(=O)N(C)[C@@H](CC(C)C)C(=O)N(C)[C@H](CC(F)F)C(=O)N[C@H](Cc3ccccc3)COc3ccc4cnc(C)cc4c3C(=O)N2)c1F` [Example 970, (3S,7S,10R,13R)-13-benzyl-10-(2,2-difluoroethyl)-N-(2-(4-fluoro-3-methoxyisoxazol-5-yl)ethyl)-7-isobutyl-6,9,20-trimethyl-1,5,8,11-tetraoxo-1,2,3,4,5,6,7,8,9,10,11,12,13,14-tetradecahydro-[1]oxa[4,7,10,14]tetraazacycloheptadecino[16,17-f]isoquinoline-3-carboxamide] the same measures were 109 nM and 463%.
Consider `COc1noc(CCNC(=O)[C@@H]2CC(=O)N(C)[C@@H](CC(C)C)C(=O)N(C)[C@H](Cc3noc(C(C)(C)C)n3)C(=O)N[C@H](Cc3ccccc3)COc3ccc4ncc(F)cc4c3C(=O)N2)n1` [Example 971, (3S,7S,10R,13R)-13-benzyl-10-((5-(tert-butyl)-1,2,4-oxadiazol-3-yl)methyl)-20-fluoro-7-isobutyl-N-(2-(3-methoxy-1,2,4-oxadiazol-5-yl)ethyl)-6,9-dimethyl-1,5,8,11-tetraoxo-1,2,3,4,5,6,7,8,9,10,11,12,13,14-tetradecahydro-[1]oxa[4,7,10,14]tetraazacycloheptadecino[16,17-f]quinoline-3-carboxamide], for which the EC50 is 163 nM and the Emax came out at 482%.
For `COc1cc(CCNC(=O)[C@@H]2CC(=O)N(C)[C@@H](CC(C)C)C(=O)N(C)[C@H](Cc3noc(C(C)(C)C)n3)C(=O)N[C@H](Cc3ccccc3)COc3ccc4ncc(F)cc4c3C(=O)N2)on1` [Example 972, (3S,7S,10R,13R)-13-benzyl-10-((5-(tert-butyl)-1,2,4-oxadiazol-3-yl)methyl)-20-fluoro-7-isobutyl-N-(2-(3-methoxyisoxazol-5-yl)ethyl)-6,9-dimethyl-1,5,8,11-tetraoxo-1,2,3,4,5,6,7,8,9,10,11,12,13,14-tetradecahydro-[1]oxa[4,7,10,14]tetraazacycloheptadecino[16,17-f]quinoline-3-carboxamide] the same measures were 128 nM and 436%.
The matching figures for `COc1noc(CCNC(=O)[C@@H]2CC(=O)N(C)[C@@H](CC(C)C)C(=O)N3CCCC[C@@H]3C(=O)N[C@H](Cc3ccccc3)COc3ccc4ncc(F)cc4c3C(=O)N2)c1F` [Example 973, (9S,13S,19aR,22R)-22-benzyl-5-fluoro-N-(2-(4-fluoro-3-methoxyisoxazol-5-yl)ethyl)-13-isobutyl-12-methyl-7,11,14,20-tetraoxo-7,8,9,10,11,12,13,14,17,18,19,19a,20,21,22,23-hexadecahydro-16H-pyrido[2′,1′:6,7][1]oxa[4,7,10,14]tetraazacycloheptadecino[16,17-f]quinoline-9-carboxamide]: 117 nM and 446%.
For `COc1noc(CCNC(=O)[C@@H]2CC(=O)N(C)[C@@H](CC(C)C)C(=O)N(C)[C@H](CC(F)(F)F)C(=O)N[C@H](Cc3ccccc3)COc3cc(C)c4ncccc4c3C(=O)N2)n1` [Example 975, (3S,7S,10R,13R)-13-benzyl-7-isobutyl-N-(2-(3-methoxy-1,2,4-oxadiazol-5-yl)ethyl)-6,9,17-trimethyl-1,5,8,11-tetraoxo-10-(2,2,2-trifluoroethyl)-1,2,3,4,5,6,7,8,9,10,11,12,13,14-tetradecahydro-[1]oxa[4,7,10,14]tetraazacycloheptadecino[16,17-f]quinoline-3-carboxamide] the same measures were 119 nM and 497%.
With `CCOCC[C@@H]1C(=O)N[C@H](Cc2ccccc2)COc2ccc3ncc(F)cc3c2C(=O)N[C@H](C(=O)NCCc2nc(C3CC3)no2)CC(=O)N(C)[C@@H](CC(C)C)C(=O)N1C` [Example 976, (3S,7S,10R,13R)-13-Benzyl-N-(2-(3-cyclopropyl-1,2,4-oxadiazol-5-yl)ethyl)-10-(2-ethoxyethyl)-20-fluoro-7-isobutyl-6,9-dimethyl-1,5,8,11-tetraoxo-1,2,3,4,5,6,7,8,9,10,11,12,13,14-tetradecahydro-[1]oxa[4,7,10,14]tetraazacycloheptadecino[16,17-f]quinoline-3-carboxamide], the EC50 amounted to 179 nM and the maximum response (Emax) stood at 348%.
For `COc1cc(CCNC(=O)[C@@H]2CC(=O)N(C)[C@@H](CC(C)C)C(=O)N(C)[C@H](CCOc3cnc(C)cn3)C(=O)N[C@H](Cc3ccccc3)COc3cc(C)nc(OC)c3C(=O)N2)on1` [Example 977, (3R,6R,9S,13S)-3-benzyl-9-isobutyl-16-methoxy-N-(2-(3-methoxyisoxazol-5-yl)ethyl)-7,10,18-trimethyl-6-(2-((5-methylpyrazin-2-yl)oxy)ethyl)-5,8,11,15-tetraoxo-2,3,4,5,6,7,8,9,10,11,12,13,14,15-tetradecahydropyrido[3,4-p][1]oxa[4,7,10,14]tetraazacycloheptadecine-13-carboxamide] the same measures were 281 nM and 410%.
